Results on ten molecules are retold here after patent publication US20110183969A1, “ANTIFUNGAL COMBINATION THERAPY” (priority 2008, published 2011).

What all share (test): MIC (YAG medium)
Holding throughout (assay type): cell-based

One test relates to Aspergillus terreus AT49. The conditions noted are these: YAG medium, MIC banded into grades, AT49; for MIC: Aspergillus terreus, read-out: MIC A. terreus 49 (grade). The procedure: (§1) Between 1 and 5 mgs of compound were accurately weighed out into a sterile Eppendorf tube. The compound was dissolved in DMSO to give a solution containing 5 mg/mL. Tubes were stored at −20° C. until required.
(§2) On the day of testing thawed solutions were vortex mixed to ensure homogeneity. 30 μL of solution was removed and added to 570 μL of sterile water in a separate sterile Eppendorf The thoroughly mixed solution was used to prepare a series of doubling dilutions in water, in a deep well plate. […] replicate plates were prepared using a Minitrak by aspirating 20 μL from each well into eleven clear polystyrene 96 well plates.
(§3) Spores of Aspergillus spp. (Aspergillus fumigatus [two strains], Aspergillus terreus [two strains], Aspergillus niger and Aspergillus flavus) were harvested from cultures grown on Sabarauds agar for 5 days, and resuspended in PBS/Tween 80 to approx 1×10^7 cfu/mL. Other filamentous fungi (Absidia corymbifera, Fusarium solani, Rhizomucor, Scedosporium spp., Trichophyton spp.), were grown on Sabarauds agar for 2-10 days and spores/hyphae resuspended in PBS/Tween to give approx 1×10^7 cfu/mL. Candida species (Candida albicans, Candida glabrata, Candida krusei, Candida parapsilosis and Candida tropicalis) were grown on Sabarauds agar, cells were harvested from the agar using a sterile loop and resuspended in PBS/Tween 80 to approx 1×10^6 cfu/mL. Each organism suspension was diluted in RPMI medium, containing 2% glucose and 0.135 M MOPS buffer (pH 7.0) to 0.5−2×10^4 cfu/mL for Aspergillus spp. and other filamentous fungi and 0.5-2×10^3 cfu/mL for yeast. 80 μL of an organism suspension was added to each well of the plate containing drug dilutions.
(§4) This produced MIC plates with a drug range 50-0.05 mg/L and organism inocula of 1-2×10^4 cfu/mL for Aspergillus spp. and other filamentous fungi and 1-2×10^3 cfu/mL for yeasts. All plates were incubated for 24-48 hrs at 35° C. Growth was assessed by monitoring the optical density at 485 nm for each well. The MIC of a compound is the lowest drug concentration that inhibits growth of an organism by >80% compared with a drug free control. MICs are recorded as mg/L. Other growth media can be used for susceptibility testing, and the activity of the described compounds can also be assessed in a medium comprising 1% glucose, 1% ammonium chloride and 0.5% yeast extract (YAG medium). To perform MIC tests in this medium, dilutions of compounds are prepared in microtitre plates as described above. Fungal strains to be tested are grown and harvested in an identical manner to that described above, each organism suspension is then diluted in YAG medium to 0.5-2×10^4 cfu/mL for Aspergillus spp. and other filamentous fungi and 0.5-2×10^3 cfu/mL for yeast. 80 μL of an organism suspension was added to each well of the plate containing drug dilutions. This produced MIC plates with a drug range 50-0.05 mg/L and organism inocula of 1-2×10^4 cfu/mL for Aspergillus spp. and other filamentous fungi and 1-2×10^3 cfu/mL for yeasts. All plates were incubated for 24 hrs at 35° C. Growth was assessed by monitoring the optical density at 485 nm for each well. The MIC of a compound is the lowest drug concentration that inhibits growth of an organism by >70% compared with a drug free control. MICs are recorded as mg/L. In cases where the MIC of an organism is […] mg/L the MIC is repeated using a concentration range of 0.5-0.0005 mg/L. MIC tests in YAG medium have more clear-cut endpoints and have slightly lower MICs than those performed in RPMI medium.
(§5) The following organisms were tested: Absidia corymbifera, Aspergillus flavus, Aspergillus fumigatus AF293 and AF210, Aspergillus niger, Aspergillus terreus AT4 and AT49, Candida albicans, Candida glabrata, Candida krusei, Candida parapsilosis, Candida tropicalis, Fusarium solani, Rhizomucor sp., Scedosporium apiospermum, Scedosporium prolificans, Trichophyton mentagrophytes, and Trichophyton rubrum.

The subject of the next test is Aspergillus niger. The following applies: YAG medium, MIC banded into grades; for MIC: Aspergillus niger, read-out: MIC A. niger (grade). The procedure:
as §1, §2, §3, §4, §5

Test [1] has as its system Aspergillus fumigatus AF293. The conditions noted are these: YAG medium, MIC banded into grades, AF293; for MIC: Aspergillus fumigatus, read-out: MIC A. fumigatus (grade). As for the experimental part: as §1, §2, §3, §4, §5
The subject of a further test is Aspergillus terreus AT4. The following applies: YAG medium, MIC banded into grades, AT4; for MIC: Aspergillus terreus, read-out: MIC A. terreus (grade). The procedure:
as §1, §2, §3, §4, §5

In test [2] the test system is Aspergillus fumigatus AF210. The following applies: YAG medium, MIC banded into grades, AF210; for MIC: Aspergillus fumigatus, read-out: MIC A. fumigatus 210 (grade). As for the experimental part:
as §1, §2, §3, §4, §5

Another test has as its system Aspergillus flavus. The following applies: YAG medium, MIC banded into grades; for MIC: Aspergillus flavus, read-out: MIC A. flavus (grade). The procedure:
as §1, §2, §3, §4, §5

Usually MIC stands for the smallest concentration in the dilution series that meets the test's criterion for growth inhibition.

SMILES strings stand for the structures. In brackets after ≈: the same amount, converted by molar mass.

`O=C(Nc1ccc(N2CCN(Cc3ccco3)CC2)cc1)C(=O)c1c(-c2ccccc2)cc2ccccn12` [Example 31, 4-[4-(2-Furan-2-yl-methyl-piperazin-yl)-phenyl]-2-oxo-2-(2-phenyl-indolizin-3-yl)-acetamide]: the “MIC A. terreus 49 (grade)” value against Aspergillus terreus AT49 was 3 (A grade of 3 represents an MIC of less than 1 mg/L). Also, the “MIC A. niger (grade)” value against Aspergillus niger is recorded as 3 (A grade of 3 represents an MIC of less than 1 mg/L). In test [1], the “MIC A. fumigatus (grade)” value is listed as 3 (A grade of 3 represents an MIC of less than 1 mg/L). The “MIC A. terreus (grade)” value with Aspergillus terreus AT4 was 3 (A grade of 3 represents an MIC of less than 1 mg/L). Further, the “MIC A. fumigatus 210 (grade)” value in test [2] is 3 (A grade of 3 represents an MIC of less than 1 mg/L). In addition, in the test with Aspergillus flavus, the “MIC A. flavus (grade)” value was 3 (A grade of 3 represents an MIC of less than 1 mg/L).
For the molecule `Cc1cc(C)nc(N2CCN(c3ccc(NC(=O)C(=O)c4c(-c5ccccc5)cc5ccc(F)cn45)cc3)CC2)c1` [Example 32, N-{4-[4-(4,6-Dimethyl-pyridin-2-yl)-piperazin-1-yl]-phenyl}-2-(6-fluoro-2-phenyl-indolizin-3-yl)-2-oxo-acetamide], the MIC (with Aspergillus terreus AT49; in the test on Aspergillus niger; in test [1]; with Aspergillus terreus AT4; in test [2]; in the test on Aspergillus flavus) was less than 1 µg/mL throughout.
In the case of `O=C(Nc1ccc(N2CCN(Cc3cccs3)CC2)cc1)C(=O)c1c(-c2ccccc2)cc2ccccn12` [Example 33, 2-Oxo-2-(2-phenylindolizin-3-yl)-N-[4-(4-thiophen-2-ylmethylpiperazin-1-yl)phenyl] acetamide], the “MIC A. terreus 49 (grade)” value in the test with Aspergillus terreus AT49 was 3 (A grade of 3 represents an MIC of less than 1 mg/L). The “MIC A. niger (grade)” value against Aspergillus niger is on record as 3 (A grade of 3 represents an MIC of less than 1 mg/L). Further, the “MIC A. fumigatus (grade)” value in test [1] is reported as 3 (A grade of 3 represents an MIC of less than 1 mg/L). Further, the “MIC A. terreus (grade)” value against Aspergillus terreus AT4 was 3 (A grade of 3 represents an MIC of less than 1 mg/L). In addition, the “MIC A. fumigatus 210 (grade)” value in test [2] is recorded as 3 (A grade of 3 represents an MIC of less than 1 mg/L). The “MIC A. flavus (grade)” value in the test on Aspergillus flavus is on record as 3 (A grade of 3 represents an MIC of less than 1 mg/L).
In the case of `O=C(Nc1ccc(N2CCN(Cc3ccco3)CC2)cn1)C(=O)c1c(-c2ccccc2)cc2ccccn12` [Example 34, N-[5-(2-Furan-2-yl-methyl-piperazin-yl)-peridin-2-yl]-2-oxo-2-(2-phenylindolizin-3-yl)-acetamide], the “MIC A. terreus 49 (grade)” value in the test on Aspergillus terreus AT49 is 3 (A grade of 3 represents an MIC of less than 1 mg/L). For the same molecule, the “MIC A. niger (grade)” value against Aspergillus niger is 3 (A grade of 3 represents an MIC of less than 1 mg/L). For the same molecule, the “MIC A. fumigatus (grade)” value in test [1] is on record as 3 (A grade of 3 represents an MIC of less than 1 mg/L). Moreover, the “MIC A. terreus (grade)” value against Aspergillus terreus AT4 was 3 (A grade of 3 represents an MIC of less than 1 mg/L). The “MIC A. fumigatus 210 (grade)” value in test [2] is given as 3 (A grade of 3 represents an MIC of less than 1 mg/L). Also, the “MIC A. flavus (grade)” value with Aspergillus flavus is given as 3 (A grade of 3 represents an MIC of less than 1 mg/L).
Turning to `Cc1ccccc1-c1cc2ccccn2c1C(=O)C(=O)Nc1ccc(N2CCN(Cc3ccco3)CC2)cn1` [Example 35, N-[5-(2-Furan-2-yl-methyl-piperazin-yl)-peridin-2-yl]-2-oxo-2-(2-o-tolyl-indolizin-3-yl)-acetamide], the “MIC A. terreus 49 (grade)” value against Aspergillus terreus AT49 is on record as 3 (A grade of 3 represents an MIC of less than 1 mg/L). In addition, the “MIC A. niger (grade)” value against Aspergillus niger is on record as 3 (A grade of 3 represents an MIC of less than 1 mg/L). Also, the “MIC A. fumigatus (grade)” value in test [1] is 3 (A grade of 3 represents an MIC of less than 1 mg/L). Further, the “MIC A. terreus (grade)” value against Aspergillus terreus AT4 is 3 (A grade of 3 represents an MIC of less than 1 mg/L). Also, the “MIC A. fumigatus 210 (grade)” value in test [2] is 3 (A grade of 3 represents an MIC of less than 1 mg/L). The “MIC A. flavus (grade)” value in the test on Aspergillus flavus is 3 (A grade of 3 represents an MIC of less than 1 mg/L).
`O=C(Nc1cnccc1N1CCN(Cc2cccs2)CC1)C(=O)c1c(-c2ccccc2)cc2ccccn12` [Example 37, 2-Oxo-2-(2-phenyl-indolizin-3-yl)-N-[4-{4-thiophen-2-ylmethyl-piperazin-1-yl}-pyridine-3-yl]-acetamide]: the MIC (with Aspergillus terreus AT49; with Aspergillus niger; in test [1]; in the test with Aspergillus terreus AT4; in test [2]; in the test on Aspergillus flavus) was less than 1 µg/mL each time.
Consider `O=C(Nc1cnccc1N1CCN(CCc2ccco2)CC1)C(=O)c1c(-c2ccccc2)cc2ccccn12` [Example 38, N-{4-[4-(2-Furan-2-yl-ethyl)-piperazin-1-yl]-pyridin-3-yl}-2-oxo-2-(2-phenyl-indolizin-3-yl)-acetamide], for which the minimum inhibitory concentration (MIC) (with Aspergillus terreus AT49; with Aspergillus niger; in test [1]; in the test on Aspergillus terreus AT4; in test [2]; in the test with Aspergillus flavus) was less than 1 µg/mL throughout.
As for `O=C(Nc1ccc(N2CCN(CCc3ccco3)CC2)cc1)C(=O)c1c(-c2ccccc2)cc2ccccn12` [Example 39, N-{4-[4-(2-Furan-2-yl-ethyl)-piperazin-1-yl]-phenyl}-2-oxo-2-(2-phenyl-indolizin-3-yl)-acetamide], the MIC (with Aspergillus terreus AT49; in the test on Aspergillus niger; in test [1]; with Aspergillus terreus AT4; in test [2]; in the test with Aspergillus flavus) was less than 1 µg/mL each time.
For `C=C(C)CN1CCN(c2ccc(NC(=O)C(=O)c3c(-c4ccc(N5CCOCC5)cc4)cc4ccccn34)cc2)CC1` [Example 40, N-{4-[4-(2-Methyl-allyl)-piperazin-1-yl]-phenyl}-2-[2-(4-morpholin-4-yl-phenyl)-indolizin-3-yl]-2-oxo-acetamide], the MIC was greater than 10 µg/mL in the test on Aspergillus terreus AT49; greater than 10 µg/mL in the test on Aspergillus niger; greater than 10 µg/mL in test [1]; greater than 10 µg/mL in the test on Aspergillus terreus AT4; greater than 10 µg/mL in test [2]; 1 to 10 µg/mL (≈ 1.77 to 17.7 µM) with Aspergillus flavus.
As to `O=C(Nc1ccc(N2CCN(c3ccccn3)CC2)cc1)C(=O)c1c(-c2ccccc2)cc2ccccn12` [Example 41, 2-Oxo-2-(2-phenyl-indolizin-3yl)-N-[4-(4-pyridin-2-yl-piperizin-1-yl)-phenyl]-acetamide], in the test on Aspergillus terreus AT49, the “MIC A. terreus 49 (grade)” value is on record as 3 (A grade of 3 represents an MIC of less than 1 mg/L). Also, the “MIC A. niger (grade)” value in the test with Aspergillus niger is 3 (A grade of 3 represents an MIC of less than 1 mg/L). Further, in test [1], the “MIC A. fumigatus (grade)” value was 3 (A grade of 3 represents an MIC of less than 1 mg/L). In the test on Aspergillus terreus AT4, the “MIC A. terreus (grade)” value is given as 3 (A grade of 3 represents an MIC of less than 1 mg/L). Moreover, the “MIC A. fumigatus 210 (grade)” value in test [2] is given as 3 (A grade of 3 represents an MIC of less than 1 mg/L). The “MIC A. flavus (grade)” value against Aspergillus flavus is 3 (A grade of 3 represents an MIC of less than 1 mg/L).
